Experimental data: patent US20230028441A1, “NOVEL HETEROARYL-TRIAZOLE COMPOUNDS AS PESTICIDES” (Bayer Aktiengesellschaft, priority 2019, published 2023)
Where two headings read alike, the source gives them in different places.

What was measured:
Format in all cases: in vivo
[1] = tested on: adult engorged female ticks (Rhipicephalus microplus); assay: Rhipicephalus (Boophilus) microplus injection test; conditions: 168 h, read-out: efficacy (infertile eggs)
In short: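 Efficacy is the share of infertile eggs: 100% means none are fertile, 0% means all are fertile. Egg deposition was checked 7 days after injecting 1 μL of DMSO-diluted compound into the abdomen of five engorged female R. microplus, with doubtful eggs kept about 42 days to hatching. The stock was 10 mg in 0.5 mL DMSO.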

[2] = tested on: caterpillars of the fall army worm (Spodoptera frugiperda); assay: Spodoptera frugiperda spray test (cotton leaves); conditions: 168 h
Description: Solvent: 14 parts by weight of dimethylformamide
Emulsifier: alkylaryl polyglycol ether
To produce a suitable preparation of active compound, 1 part by weight of active compound is mixed with the stated amount of solvent and is diluted with water, containing an emulsifier concentration of 1000 ppm, to the desired concentration. Further test concentrations are prepared by dilution with emulsifier containing water. Ammonium salt and/or penetration enhancer in a dosage of 1000 ppm are added to the desired concentration if necessary.
Cotton leaves (Gossypium hirsutum) are treated by being sprayed with the preparation of the active compound of the desired concentration and are infested with caterpillars of the fall army worm (Spodoptera frugiperda).
After 7 days mortality in % is determined. 100% means all the caterpillars have been killed and 0% means none of the caterpillars have been killed.

[3] = tested on: larvae of the banded cucumber beetle (Diabrotica balteata); assay: Diabrotica balteata spray test; conditions: 168 h, read-out: efficacy (seedlings grown up)
In short: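 Efficacy (%) read at day 7: 100% means seedlings grew like untreated, uninfested controls; 0% means no seedlings grew. Wheat seeds germinated 1 day on agar, sprayed with emulsified compound solution (1000 ppm emulsifier in water), then each well infested with 10-20 larvae.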

[4] = tested on: cattle tick larvae (Rhipicephalus microplus), strain Parkhurst, resistant against synthetic pyrethroids; assay: Rhipicephalus (Boophilus) microplus in-vitro contact test, larval cattle tick; conditions: read-out: efficacy (larvae dead or moribund)
In short: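 Efficacy, 100% meaning all larvae dead or moribund, was judged at 48 h from loss of negative geotactic climbing. Larvae of the Parkhurst strain, 20–50 per tube, were exposed at 27° C and 85% humidity to acetone-coated tube surfaces; 900 ppm corresponded to 5 μg/cm^2.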

[5] = tested on: adult unfed cat fleas (Ctenocephalides felis); assay: Ctenocephalides felis oral test; conditions: 48 h
In short: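 Percent flea mortality recorded at 2 days. Compound was dissolved in dimethyl sulfoxide and diluted into cattle blood, which ~20 unfed adult cat fleas ingested through parafilm from a 37°C-heated chamber, their own chamber kept at room temperature.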

[6] = tested on: fall armyworm larvae (Spodoptera frugiperda); assay: Spodoptera frugiperda spray test (maize leaf sections); conditions: 168 h
In short: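 Percent kill of Spodoptera frugiperda larvae was recorded 7 days after infesting dried, treated maize leaf sections. Spray solutions were made from an acetone/DMF compound preparation diluted with 1000 ppm emulsifier-containing water.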

[7] = tested on: adult brown dog ticks (Rhipicephalus sanguineus); assay: Rhipicephalus sanguineus in-vitro contact test with adult brown dog ticks; conditions: after 48 hours, read-out: efficacy (ticks dead or moribund); for pest or weed control at 1 µg/cm2, 100 g/ha: 1 μg/cm^2 (=100 g/ha); for pest or weed control at 5 µg/cm2, 500 g/ha: 5 μg/cm^2 (=500 g/ha)
In short: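 Efficacy is the percentage of adult ticks dead or moribund, meaning immotile or uncoordinated and unable to escape 45-50° C. heat within 5 min. Read 48 h after 5-10 ticks were enclosed at room temperature in acetone-coated glass tubes. Dose 5 μg/cm^2, from a 900 ppm coating solution.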

[8] = tested on: green peach aphid (Myzus persicae); assay: Myzus persicae oral test; conditions: 120 h
In short: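 Readout: % mortality at day 5, where 100% = all aphids dead and 0% = none dead. Feeding via parafilm membrane over compound in IPL41 medium (33%+15% sugar); mixed-age population. Stock in acetone (1:100 w/w), water-diluted.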

[9] = tested on: larvae of the southern green stink bug (Nezara viridula); assay: Nezara viridula spray test; conditions: in Hordeum vulgare, 96 h
In short: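 Percent mortality of southern green stink bug larvae read 4 days after spraying infested Hordeum vulgare. Test solutions: compound in acetone plus dimethylformamide, diluted with emulsifier-containing water (1000 ppm alkylarylpolyglycol ether).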

[10] = tested on: adult cat fleas (Ctenocephalides felis); assay: Ctenocephalides felis in-vitro contact test, adult cat flea; conditions: 5 μg/cm^2 (=500 g/ha), after 48 hours, read-out: efficacy (fleas dead or moribund)
In short: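 Efficacy (%) counts fleas that are dead or moribund, meaning unable to escape heat (45-50 °C, ≤5 min) by climbing. Scoring was done 48 h after 5-10 adults were placed at room temperature in glass tubes. The tubes carried a dried acetone film of compound, 5 μg/cm^2 at 900 ppm.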

[11] = tested on: brown planthopper (Nilaparvata lugens); assay: Nilaparvata lugens spray test; conditions: in Oryza sativa, 96 h
In short: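 Rice plants (Oryza sativa) sprayed with compound in acetone/DMF diluted in water containing 1000 ppm alkylarylpolyglycol ether emulsifier, then infested with planthoppers. Mortality % scored after 4 days (100% = all killed, 0% = none killed).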

[12] = 4 μg/animal, egg deposition after 7 days
[13] = 20 μg/animal, egg deposition after 7 days
[14] = 100 g/ha (=32 μg/well), after 7 days, wheat seeds
[15] = 500 g/ha (=160 μg/well), after 7 days, wheat seeds
[16] = 5 μg/cm^2 (=500 g/ha), after 48 hours
[17] = 100 ppm in cattle blood, after 2 days

| SMILES | mortality at 20 ppm [2] [%] | mortality at 100 g/ha [6] [%] | mortality at 500 g/ha [6] [%] | pest or weed control at 1 µg/cm2, 100 g/ha [7] [%] | pest or weed control at 5 µg/cm2, 500 g/ha [7] [%] | mortality at 4 ppm [8] [%] | pest or weed control at 0.004 mg [1, 12] [%] | pest or weed control at 0.02 mg [1, 13] [%] | pest or weed control at 32 µg/disc, 100 g/ha [3, 14] [%] | mortality at 500 g/ha [9] [%] | pest or weed control at 5 µg/cm2 [4, 16] [%] | mortality at 100 ppm [5, 17] [%] | pest or weed control at 5 µg/cm2 [10] [%] | other results |
| --- | --- | --- | --- | --- | --- | --- | --- | --- | --- | --- | --- | --- | --- | --- |
| COC(=O)Nc1nc(C(C)NC(=O)c2cc(Cl)cc(C(F)(F)F)c2)n(-c2ccc(Cl)cn2)n1 (racemic) [I-010, methyl N-[1-(5-chloro-2-pyridyl)-5-[1-[[3-chloro-5-(trifluoromethyl)benzoyl]amino]ethyl]-1,2,4-triazol-3-yl]carbamate] | 80 | 100 | 100 | 100 | 100 | 90 |  |  |  |  |  |  |  | pest or weed control at 0.004 mg [1]: 100%; pest or weed control at 0.02 mg [1]: 100%; pest or weed control at 32 µg/disc, 100 g/ha [3]: 100%; pest or weed control at 160 µg/disc, 500 g/ha [3]: 100%; pest or weed control at 5 µg/cm2 ([4]; 48 h): 100%; mortality at 100 ppm [5]: 100% |
| CC(=O)Nc1nc(C(C)NC(=O)c2cc(Cl)cc(C(F)(F)F)c2)n(-c2ccc(Cl)cn2)n1 (racemic) [I-011, N-[1-[5-acetamido-2-(5-chloro-2-pyridyl)-1,2,4-triazol-3-yl]ethyl]-3-chloro-5-(trifluoromethyl)benzamide] | 100 | 100 | 100 |  | 80 | 100 | 100 | 100 | 100 | 90 | 100 | 100 |  | pest or weed control at 160 µg/disc, 500 g/ha [3, 15]: 100% |
| CC(NC(=O)c1cc(Cl)cc(C(F)(F)F)c1)c1nc(NC(=O)C2CC2(F)F)nn1-c1ccc(Cl)cn1 (stereo not drawn) [I-018] | 100 |  |  |  |  |  | 100 | 100 | 100 |  | 100 | 100 | 100 | pest or weed control at 160 µg/disc, 500 g/ha [3, 15]: 100% |
| CC(NC(=O)c1cc(Cl)cc(C(F)(F)F)c1)c1nc(CS(C)(=O)=O)nn1-c1ccc(Cl)cn1 (stereo not drawn) [I-029] | 100 | 100 | 100 |  |  |  | 100 | 100 |  |  |  | 100 |  |  |
| CSc1nc(C(C)NC(=O)c2cc(Cl)cc(C(F)(F)F)c2)n(-c2ccc(Cl)cn2)n1 (stereo not drawn) [I-062] | 100 |  | 100 |  | 100 |  | 100 | 100 | 100 | 100 | 100 |  | 100 | pest or weed control at 160 µg/disc, 500 g/ha [3, 15]: 100%; mortality at 100 g/ha [9]: 100% |
| CC(NC(=O)c1cc(Cl)cc(C(F)(F)F)c1)c1nc(S(C)(=O)=O)nn1-c1ccc(Cl)cn1 (stereo not drawn) [I-063] | 100 | 100 | 100 |  |  | 100 | 100 | 100 | 100 | 100 |  |  |  | pest or weed control at 160 µg/disc, 500 g/ha [3, 15]: 100% |
| CNc1nc(C(C)NC(=O)c2cc(Cl)cc(OC(F)(F)F)c2)n(-c2ncccn2)n1 (stereo not drawn) [I-099] | 100 | 100 |  |  | 80 | 100 | 100 |  | 100 |  | 90 | 100 | 100 |  |
| CC(NC(=O)c1cc(C(F)(F)F)cc(C(F)(F)F)c1)c1nc(N)nn1-c1ccc(C#N)cn1 (stereo not drawn) [I-104] | 100 | 100 |  | 100 | 100 | 100 | 100 |  | 100 |  | 100 | 100 | 100 |  |
| CC(NC(=O)c1cc(F)cc(C#N)c1)c1nc(N)nn1-c1ncccn1 (stereo not drawn) [I-105] | 100 | 100 |  |  |  | 100 | 100 |  | 100 |  | 100 | 100 | 100 |  |
| CC(NC(=O)c1cc(Br)cc(Br)c1)c1nc(N)nn1-c1ccc(C#N)cn1 (stereo not drawn) [I-114] | 100 | 100 |  |  |  | 90 |  |  | 100 |  | 100 |  |  |  |
| CC(NC(=O)c1cc(Br)cc(C(F)(F)F)c1)c1nc(N)nn1-c1ccc(C#N)cn1 (stereo not drawn) [I-117] | 100 | 100 |  |  |  | 100 | 100 |  | 100 | 100 | 100 | 100 |  |  |
| CC(NC(=O)c1cc(Cl)cc(OC(F)(F)F)c1)c1nc(N)nn1-c1ccc(C#N)cn1 (stereo not drawn) [I-118] | 100 | 100 |  |  |  | 100 | 100 |  | 100 | 100 | 100 | 100 | 90 |  |
| CNc1nc([C@H](C)NC(=O)c2cc(Br)cc(C(F)(F)F)c2)n(-c2ncccn2)n1 [I-136] | 100 | 100 |  | 100 | 100 |  |  |  | 100 | 90 | 100 |  |  | mortality at 500 g/ha [11]: 100% |
| C[C@H](NC(=O)c1cc(Br)cc(OC(F)(F)F)c1)c1nc(N(C)C)nn1-c1ncccn1 [I-139] | 100 | 100 |  | 80 | 100 |  |  |  | 100 | 100 | 100 |  | 100 | mortality at 500 g/ha [11]: 100% |
| C[C@H](NC(=O)c1cc(OC(F)(F)F)cc(C2CC2)c1)c1nc(N)nn1-c1ccc(C#N)cn1 [I-154] | 100 | 100 |  | 80 | 80 |  |  |  | 100 | 100 | 100 |  | 100 |  |
